pEC50: −log10 of the molar value.
Molecular target: T1, ΔF508-CFTR (Homo sapiens, UniProt P13569, DEL508-508)
T1 construct: expressed in transfected cells
Assay: Membrane potential optical (FRET/VIPR) assay, identification of potentiator compounds
Format: cell-based
Settings: Table 3, assay not given; for % Activity: relative efficacy
Method in brief: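 NIH3T3 mouse fibroblasts stably expressing ΔF508-CFTR, temperature-corrected 24 h at 27° C., read on VIPR by FRET between CC2-DMPE and DiSBAC2(3). Potentiators identified in a double-addition format, first adding chloride-free (gluconate) medium with or without compound.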

T1 sequence (P13569 with tags, fused parts or gaps DEL508-508): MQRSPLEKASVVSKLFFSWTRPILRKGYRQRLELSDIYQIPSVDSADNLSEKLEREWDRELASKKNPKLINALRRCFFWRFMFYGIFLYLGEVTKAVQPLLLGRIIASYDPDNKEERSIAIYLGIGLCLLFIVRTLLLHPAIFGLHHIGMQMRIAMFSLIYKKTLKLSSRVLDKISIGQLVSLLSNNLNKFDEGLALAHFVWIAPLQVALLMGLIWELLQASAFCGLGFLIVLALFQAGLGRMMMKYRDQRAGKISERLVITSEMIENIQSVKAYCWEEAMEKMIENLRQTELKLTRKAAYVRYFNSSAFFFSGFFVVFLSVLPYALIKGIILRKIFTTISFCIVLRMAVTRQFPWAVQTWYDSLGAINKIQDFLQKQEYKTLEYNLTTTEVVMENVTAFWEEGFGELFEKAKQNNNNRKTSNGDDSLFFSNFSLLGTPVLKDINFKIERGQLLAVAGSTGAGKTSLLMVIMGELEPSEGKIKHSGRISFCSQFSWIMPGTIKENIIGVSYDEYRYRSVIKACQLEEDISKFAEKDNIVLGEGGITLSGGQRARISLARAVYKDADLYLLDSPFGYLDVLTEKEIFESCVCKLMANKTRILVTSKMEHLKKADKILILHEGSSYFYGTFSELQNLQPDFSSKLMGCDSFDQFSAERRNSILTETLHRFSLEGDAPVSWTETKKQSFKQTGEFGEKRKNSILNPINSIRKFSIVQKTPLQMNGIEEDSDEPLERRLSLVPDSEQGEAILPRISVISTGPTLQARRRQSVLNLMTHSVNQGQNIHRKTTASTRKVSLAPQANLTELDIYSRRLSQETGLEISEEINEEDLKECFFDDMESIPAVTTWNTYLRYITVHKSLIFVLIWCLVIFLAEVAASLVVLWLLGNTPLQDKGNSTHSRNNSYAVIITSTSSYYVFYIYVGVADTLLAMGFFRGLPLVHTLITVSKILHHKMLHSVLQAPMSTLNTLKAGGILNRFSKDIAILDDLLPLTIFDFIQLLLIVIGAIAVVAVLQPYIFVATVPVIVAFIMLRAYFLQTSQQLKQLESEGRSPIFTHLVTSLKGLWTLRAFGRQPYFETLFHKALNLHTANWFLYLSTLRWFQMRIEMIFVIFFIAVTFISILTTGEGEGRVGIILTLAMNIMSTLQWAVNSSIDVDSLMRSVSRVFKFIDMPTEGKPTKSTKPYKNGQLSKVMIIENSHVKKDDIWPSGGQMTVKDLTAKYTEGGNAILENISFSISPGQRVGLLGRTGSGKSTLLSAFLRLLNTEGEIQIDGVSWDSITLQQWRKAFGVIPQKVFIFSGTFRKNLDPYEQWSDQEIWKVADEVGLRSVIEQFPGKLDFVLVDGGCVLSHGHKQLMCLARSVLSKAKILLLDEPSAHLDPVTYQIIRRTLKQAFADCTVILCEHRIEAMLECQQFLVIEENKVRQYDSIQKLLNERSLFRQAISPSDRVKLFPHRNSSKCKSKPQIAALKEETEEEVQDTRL

Row | SMILES | pEC50 | % Activity
1 | Cc1cccc2c(=O)c(C(=O)Nc3ccc(C(C)C)cc3C(F)(F)F)c[nH]c12 [Compound 637, N-[4-isopropyl-2-(trifluoromethyl)phenyl]-8-methyl-4-oxo-1H-quinoline-3-carboxamide] | > 5.00 | + (<25%)
2 | CCCOc1ccc(NC(=O)c2c[nH]c3ccccc3c2=O)cc1N [Compound 368, N-(3-amino-4-propoxy-phenyl)-4-oxo-1H-quinoline-3-carboxamide] | > 5.00 | ++ (between 25% to 100%)
3 | CC(C)(C)c1cc(F)c(NC(=O)c2c[nH]c3ccccc3c2=O)cc1O [Compound 143, N-(2-fluoro-5-hydroxy-4-tert-butyl-phenyl)-4-oxo-1H-quinoline-3-carboxamide] | > 5.00 | ++ (between 25% to 100%)
4 | CC(C)c1ccc(NC(=O)c2c[nH]c3ccccc3c2=O)cc1N [Compound 69, N-(3-amino-4-isopropyl-phenyl)-4-oxo-1H-quinoline-3-carboxamide] | > 5.00 | ++ (between 25% to 100%)
5 | CC1(C)CCN(c2ccc(NC(=O)c3c[nH]c4ccccc4c3=O)c(C(F)(F)F)c2)C1 [Compound 536, N-[4-(3,3-dimethylpyrrolidin-1-yl)-2-(trifluoromethyl)phenyl]-4-oxo-1H-quinoline-3-carboxamide] | > 5.00 | ++ (between 25% to 100%)
6 | Cc1cc(C(C)(C)C)c(O)cc1NC(=O)c1c[nH]c2cccc(O)c2c1=O [Compound 588, 5-hydroxy-N-(5-hydroxy-2-methyl-4-tert-butyl-phenyl)-4-oxo-1H-quinoline-3-carboxamide] | > 5.00 | ++ (between 25% to 100%)
7 | CC(C)c1ccc(NC(=O)c2c[nH]c3ccccc3c2=O)cc1O [Compound 575, N-(3-hydroxy-4-isopropyl-phenyl)-4-oxo-1H-quinoline-3-carboxamide] | > 5.00 | ++ (between 25% to 100%)
8 | CC(C)(C)c1cc2cc[nH]c2cc1NC(=O)c1c[nH]c2cccc(F)c2c1=O [Compound 656, 5-fluoro-4-oxo-N-(5-tert-butyl-1H-indol-6-yl)-1H-quinoline-3-carboxamide] | > 5.00 | ++ (between 25% to 100%)
9 | COc1cc(C#N)c(NC(=O)c2c[nH]c3ccccc3c2=O)cc1OC [Compound 106, N-(2-cyano-4,5-dimethoxy-phenyl)-4-oxo-1H-quinoline-3-carboxamide] | 4.22 to 4.60 | + (<25%)
10 | O=C(Nc1ccc(N2CCCCC2)cc1C(F)(F)F)c1c[nH]c2ccccc2c1=O [Compound 686, 4-oxo-N-[4-(1-piperidyl)-2-(trifluoromethyl)phenyl]-1H-quinoline-3-carboxamide] | > 5.00 | ++ (between 25% to 100%)
11 | O=C(Nc1ccccc1-c1ccc(F)c(Cl)c1)c1c[nH]c2ccccc2c1=O [Compound 190, N-[2-(3-chloro-4-fluoro-phenyl)phenyl]-4-oxo-1H-quinoline-3-carboxamide] | > 5.00 | ++ (between 25% to 100%)
12 | CC(C)(C)OC(=O)Nc1ccc(NC(=O)c2c[nH]c3ccccc3c2=O)c(C(F)(F)F)c1 [Compound 600, tert-butyl [[4-[(4-oxo-1H-quinolin-3-yl)carbonylamino]-3-(trifluoromethyl)phenyl]amino]formate] | > 5.00 | ++ (between 25% to 100%)
13 | Nc1nc2ccc(NC(=O)c3c[nH]c4ccccc4c3=O)cc2s1 [Compound 671, N-(2-aminobenzothiazol-6-yl)-4-oxo-1H-quinoline-3-carboxamide] | > 5.00 | ++ (between 25% to 100%)
14 | CC(C)(C)c1cccc(NC(=O)c2c[nH]c3ccc(F)cc3c2=O)c1 [Compound 664, 6-fluoro-4-oxo-N-(3-tert-butylphenyl)-1H-quinoline-3-carboxamide] | > 5.00 | ++ (between 25% to 100%)
15 | COc1ccc(-c2ccccc2NC(=O)c2c[nH]c3ccccc3c2=O)cc1OC [Compound 436, N-[2-(3,4-dimethoxyphenyl)phenyl]-4-oxo-1H-quinoline-3-carboxamide] | > 5.00 | ++ (between 25% to 100%)
16 | COc1ccc(NC(=O)c2c[nH]c3ccccc3c2=O)cc1 [Compound 439, N-(4-methoxyphenyl)-4-oxo-1H-quinoline-3-carboxamide] | > 5.00 | ++ (between 25% to 100%)
17 | O=C(Nc1cc(O)cc(C(F)(F)F)c1)c1c[nH]c2ccc(F)cc2c1=O [Compound 574, 6-fluoro-N-[3-hydroxy-5-(trifluoromethyl)phenyl]-4-oxo-1H-quinoline-3-carboxamide] | > 5.00 | ++ (between 25% to 100%)
18 | CC(C)c1ccc(NC(=O)c2c[nH]c3ccccc3c2=O)c(C(F)(F)F)c1 [Compound 47, N-[4-isopropyl-2-(trifluoromethyl)phenyl]-4-oxo-1H-quinoline-3-carboxamide] | > 5.00 | ++ (between 25% to 100%)

Row | SMILES | pEC50 | % Activity
19 | O=C(Nc1ccc2cc[nH]c2c1)c1cnc2ccc(Cl)cc2c1O [Compound 358, 6-chloro-4-hydroxy-N-(1H-indol-6-yl)quinoline-3-carboxamide] | > 5.00 | ++ (between 25% to 100%)
20 | Cc1ccc(-c2ccccc2NC(=O)c2c[nH]c3ccccc3c2=O)cc1C [Compound 261, N-[2-(3,4-dimethylphenyl)phenyl]-4-oxo-1H-quinoline-3-carboxamide] | > 5.00 | ++ (between 25% to 100%)
21 | O=C(Nc1cc(NS(=O)(=O)CCN2CCOCC2)cc(C(F)(F)F)c1)c1c[nH]c2ccccc2c1=O [Compound 272, N-[3-(2-morpholinoethylsulfonylamino)-5-(trifluoromethyl)phenyl]-4-oxo-1H-quinoline-3-carboxamide] | 4.60 to 5.00 | ++ (between 25% to 100%)
22 | O=C(Nc1c(Cl)cccc1Cl)c1c[nH]c2ccccc2c1=O [Compound 317, N-(2,6-dichlorophenyl)-4-oxo-1H-quinoline-3-carboxamide] | > 5.00 | ++ (between 25% to 100%)
23 | CCCc1ccc(NC(=O)c2c[nH]c3ccccc3c2=O)cc1N(C)C [Compound 462, N-(3-dimethylamino-4-propyl-phenyl)-4-oxo-1H-quinoline-3-carboxamide] |  | ++ (between 25% to 100%)
24 | CCOC(=O)Nc1cc(NC(=O)c2c[nH]c3ccccc3c2=O)ccc1C(C)C [Compound 225, [2-isopropyl-5-[(4-oxo-1H-quinolin-3-yl)carbonylamino]phenyl]aminoformic acid ethyl ester] | > 5.00 | ++ (between 25% to 100%)
25 | CC1(c2ccc(NC(=O)c3c[nH]c4ccc(F)cc4c3=O)cc2)COC1 [Compound 521, 6-fluoro-N-[4-(3-methyloxetan-3-yl)phenyl]-4-oxo-1H-quinoline-3-carboxamide] | > 5.00 | ++ (between 25% to 100%)
26 | O=C(Nc1cnccn1)c1c[nH]c2ccccc2c1=O [Compound 219, 4-oxo-N-pyrazin-2-yl-1H-quinoline-3-carboxamide] | 4.22 to 4.60 | + (<25%)
27 | CCOc1cccc2c(=O)c(C(=O)Nc3ccc(C(C)C)cc3C(F)(F)F)c[nH]c12 [Compound 517, 8-ethoxy-N-[4-isopropyl-2-(trifluoromethyl)phenyl]-4-oxo-1H-quinoline-3-carboxamide] | > 5.00 | + (<25%)
28 | CC1(c2cc(F)c(NC(=O)c3c[nH]c4cccc(C(F)(F)F)c4c3=O)cc2O)CCCCC1 [Compound 706, N-[2-fluoro-5-hydroxy-4-(1-methylcyclohexyl)-phenyl]-4-oxo-5-(trifluoromethyl)-1H-quinoline-3-carboxamide] | > 5.00 | +++ (>100%)
29 | COc1ccc2[nH]cc(C(=O)Nc3cc(O)c(C4(C)CCCCC4)cc3F)c(=O)c2c1 [Compound 584, N-[2-fluoro-5-hydroxy-4-(1-methylcyclohexyl)-phenyl]-6-methoxy-4-oxo-1H-quinoline-3-carboxamide] | > 5.00 | ++ (between 25% to 100%)
30 | Cc1cccc(C)c1NC(=O)c1c[nH]c2ccccc2c1=O [Compound 315, N-(2,6-dimethylphenyl)-4-oxo-1H-quinoline-3-carboxamide] | > 5.00 | ++ (between 25% to 100%)
31 | CC(C)(C)c1cc(C(C)(C)C)c(NC(=O)c2c[nH]c3c(C(F)(F)F)cccc3c2=O)cc1O [Compound 580, N-(5-hydroxy-2,4-ditert-butyl-phenyl)-4-oxo-8-(trifluoromethyl)-1H-quinoline-3-carboxamide] | > 5.00 | + (<25%)
32 | CC(C)(C)OC(=O)N1CCc2c(cccc2NC(=O)c2c[nH]c3ccccc3c2=O)C1 [Compound 427, 5-[(4-oxo-1H-quinolin-3-yl)carbonylamino]-1,2,3,4-tetrahydroisoquinoline-2-carboxylic acid tert-butyl ester] | > 5.00 | ++ (between 25% to 100%)
33 | Cc1ccc(NC(=O)c2c[nH]c3ccccc3c2=O)cc1C [Compound 246, N-(3,4-dimethylphenyl)-4-oxo-1H-quinoline-3-carboxamide] | > 5.00 | ++ (between 25% to 100%)
34 | CCc1ccc(NC(=O)c2c[nH]c3ccccc3c2=O)cc1NC(=O)OC [Compound 129, [2-ethyl-5-[(4-oxo-1H-quinolin-3-yl)carbonylamino]phenyl]aminoformic acid methyl ester] | 4.60 to 5.00 | ++ (between 25% to 100%)
35 | COc1cc(NC(=O)c2c[nH]c3ccccc3c2=O)cc(C(F)(F)F)c1 [Compound 691, N-[3-methoxy-5-(trifluoromethyl)phenyl]-4-oxo-1H-quinoline-3-carboxamide] | > 5.00 | ++ (between 25% to 100%)
36 | CC(C)(C)c1cc(Cl)c(NC(=O)c2c[nH]c3ccccc3c2=O)cc1O [Compound 291, N-(2-chloro-5-hydroxy-4-tert-butyl-phenyl)-4-oxo-1H-quinoline-3-carboxamide] |  | ++ (between 25% to 100%)

— patent publication US8614327B2 (Vertex Pharmaceuticals Incorporated, priority 2004, dated 2013)
